Data published in paper PMC11550293, “Biochemical characterization of a recombinant laccase from Halalkalibacterium halodurans C-125 and its application in the biotransformation of organic compounds” (Biotechnology Letters, 2024).

B1: rLac-HhC125 (Halalkalibacterium halodurans C-125) (protein)
chain: DDHSEMDHGNNQQDEQNEGTFEDGKKVFNLEVTETHWMFNDEVMMDAWTYNGTLPGQEIRVQEGDEVVINVKNSLNVPTALHLHGFPVPNEMDGVPGVTQNAIMPGEEFTYEYQANVPGTYWYHSHQDGATQVDRGLYGVFIVEPVDPESYDTDVAIVIDEFASMGMGMGMDHSTMDHGDMEHDGNDDMSHSEMMNEMYDTMVINGKADPQIESINVVEGNRVKLRFVNAGLFTQVVSIPEHSFKITHYDGQPVNEPDVLQDTAFRIAPAERYDLEIIMDNPGAWGIQVFAEENQERLQALIPLVYEEYEDEELQTVDSISSFFDLTTYGIPKELDIGDITKEYDMLLGSDDGGDTFTINGKKFPNHEIYDVEEGDMVKFTIINDTDFDHPMHLHGDFFHVISKGGKAIQGSPVLKDTLNVRPGETYEIVFEAKNPGNWMFHCHEFHHASGGMVAEIHYEGFELPFTPDPNIPNMPE
notes: native signal peptide removed (forward primer encodes MDDHSEMD...), pET28-a(+) BamHI/HindIII, E. coli BL21(DE3); partially purified by SEC; theoretical monomer 54 kDa; monomer and possibly dimer

Experiments:
rLac-HhC125 = target: T1, rLac-HhC125 (Halalkalibacterium halodurans, UniProt Q9KB49); test: biochemical; details: read-out: Residual activity (%) ± SD (0 min)
T1 construct: gene BH2082

purified protein = substrate: COc1cc(C=NN=Cc2cc(OC)c(O)c(OC)c2)cc(OC)c1O; test: purified protein; type: biochemical, Halalkalibacterium halodurans; details: 100 mM Tris-HCl pH 8, 2 mM CuSO4, enzyme pre-treated 50 °C 20 min, partially purified enzyme

Row | Molecule | remaining activity at 1000 µM (rLac-HhC125) [%] | Km (purified protein) [µM]
1 | NC(=S)Nc1ccccc1 [Phenylthiourea] | 3.9 ± 3.8 | 
2 | B1 |  | 2.48
